Where a name gives a salt, the structure may show the parent alone.
Legend:
interferon (α) [1] = assay: Interferon (α) induction in human cells (in vitro human blood cell system, interferon by bioassay); assay type: cell-based; details: human PBM's, 48 hours
Experimental: An in vitro human blood cell system was used to assess interferon induction by compounds of the invention. Activity is based on the measurement of interferon secreted into culture media. Interferon is measured by bioassay.
Whole blood is collected by venipuncture into EDTA vacutainer tubes. Peripheral blood mononuclear cells (PBM's) are separated from whole blood by using either LeucoPREP™ Brand Cell Separation Tubes (available from Becton Dickinson) or Ficoll-Paque® solution (available from Pharmacia LKB Biotechnology Inc, Piscataway, N.J.). […] 200 μL portions of PBM suspension are added to 96 well (flat bottom) sterile tissue culture plates (Becton Dickinson Labware, Lincoln Park, N.J.).
The compounds are solubilized in ethanol, dimethyl sulfoxide or tissue culture water then diluted with tissue culture water, 0.01N sodium hydroxide or 0.01N hydrochloric acid (The choice of solvent will depend on the chemical characteristics of the compound being tested.). Ethanol or DMSO concentration should not exceed a final concentration of 1% for addition to the culture wells. Compounds are initially tested in a concentration range of from about 0.1 μg/mL to about 5 μg/mL. Compounds which show induction at a concentration of 0.5 μg/mL are then tested in a wider concentration range.
The solution of test compound is added in a volume (less than or equal to 50 μL) to the wells containing 200 μL of diluted whole blood or of PBM's in media. Solvent and/or media is added to control wells (wells with no test compound) and as needed to adjust the final volume of each well to 250 μL. The plates are covered with plastic lids, vortexed gently and then incubated for 48 hours at 37° C. with a 5% carbon dioxide atmosphere.
Following incubation, the plates are covered with parafilm and then centrifuged at 1000 rpm for 10 to 15 minutes at 4° C. in a Damon IEC Model CRU-5000 centrifuge. Media (about 200 μL) is removed from 4 to 8 wells and pooled into 2 mL sterile freezing vials. Samples are maintained at −70° C. until analysis.
Interferon is determined by bioassay using A549 human lung carcinoma cells challenged with encephalomyocarditis. The details of the bioassay method have been described by G. L. Brennan and L. H. Kronenberg in “Automated Bioassay of Interferons in Micro-test Plates”, Biotechniques, June/Jul. […] The incubated cells are infected with an inoculum of encephalomyocarditis virus. The infected cells are incubated for an additional period at 37° C. before quantifying for viral cytopathic effect. The viral cytopathic effect is quantified by staining followed by spectrophotometric absorbance measurements. Results are expressed as alpha reference units/mL based on the value obtained for NIH HU IF-L standard.
Compounds of the invention were tested for their ability to induce interferon in human cells using the test method described above.

interferon (α) [2] = assay: Cytokine induction in human cells: interferon (α) secreted by PBMCs (ELISA or bioassay); assay type: cell-based; details: 18 to 24 hours
Experimental: (§1) An in vitro human blood cell system was used to assess cytokine induction by compounds of the invention.
(§2) Whole blood is collected by venipuncture into EDTA vacutainer tubes from healthy human donors. […] The PBMC suspension is added to 48 well flat bottom sterile tissue culture plates (Costar, Cambridge, Mass. or Becton Dickinson Labware, Lincoln Park, N.J.) containing an equal volume of RPMI complete media containing test compound.
(§3) The compounds are solubilized in dimethyl sulfoxide (DMSO). The DMSO concentration should not exceed a final concentration of 1% for addition to the culture wells.
(§4) The solution of test compound is added at 60 μM to the first well containing RPMI complete and serial 3 fold dilutions are made. The PBMC suspension is then added to the wells in an equal volume, bringing the test compound concentrations to the desired range (0.12 to 30 μM). The final concentration of PBMC suspension is 1.5–2×10^6 cells/mL. The plates are covered with sterile plastic lids, mixed gently and then incubated for 18 to 24 hours at 37° C. in a 5% carbon dioxide atmosphere.
(§5) Following incubation the plates are centrifuged for 5–10 minutes at 1000 rpm (˜200×g) at 4° C. The cell culture supernatant is removed with a sterile polypropylene pipet and transferred to sterile polypropylene tubes. Samples are maintained at −30 to −70° C. until analysis. The samples are analyzed for interferon (α) by either ELISA or bioassay and for tumor necrosis factor (α) by ELISA
Interferon is determined by bioassay using A549 human lung carcinoma cells challenged with encephalomyocarditis. […] Briefly stated the method is as follows: A549 cells are incubated with dilutions of samples or a standard interferon at 37° C. for 24 hours. The incubated cells are then infected with an inoculum of encephalomyocarditis virus. The infected cells are incubated for an additional 24 hours at 37° C. before evaluating for viral cytopathic effect. The viral cytopathic effect is quantified by staining with crystal violet followed by visual scoring of the plates. Results are expressed as alpha reference units/mL based on the value obtained for NIH Human Leukocyte IFN standard.
Interferon (α) concentration is determined by ELISA using a Human Multi-Species kit from PBL Biomedical Laboratories, New Brunswick, N.J. according to the manufacturer's instructions.

[3] = tested on: tumor necrosis factor (α); assay: Cytokine induction in human cells: tumor necrosis factor (α) secreted by PBMCs (ELISA); assay type: cell-based; details: 18 to 24 hours
Experimental: as §1, §2, §3, §4, §5
Tumor necrosis factor (α) (TNF) concentration is determined using ELISA kits available from Genzyme, Cambridge, Mass.; R&D Systems, Minneapolis, Minn.; or Pharmingen, San Diego, Calif. according to the manufacturer's instructions.

## CCc1nc2c(N)nc3ccccc3c2s1.Cl
other
  melting point: 268 to 270 °C

## Nc1nc2ccccc2c2sc(Cc3ccccc3)nc12 (as salt: hydrochloride) [Example 34, 2-Benzylthiazolo[4,5-c]quinolin-4-amine Hydrochloride]
other
  melting point: 152 to 155 °C

## CCCc1nc2c(N)nccc2s1 (as salt: trifluoroacetate) [Example 62, 2-Propylpyrido[3,4-d][1,3]thiazol-4-amine Trifluoroacetate]
other
  melting point: 160 to 162 °C

## Cl.Nc1nc2ccccc2c2scnc12.O (hydrate or solvate) [Example 5, Thiazolo[4,5-c]quinolin-4-amine Hydrochloride Hydrate]
other
  melting point: 284 to 285 °C

## Cl.Nc1nc2ccccc2c2scnc12.O [Example 5, Thiazolo[4,5-c]quinolin-4-amine Hydrochloride Hydrate]
Interferon (α) [1]; Dose Concentration 0.01 μg/mL
  Interferon (α) Induction in Human Cells: −
Interferon (α) [1]; Dose Concentration 0.05 μg/mL
  Interferon (α) Induction in Human Cells: −
Interferon (α) [1]; Dose Concentration 0.10 μg/mL
  Interferon (α) Induction in Human Cells: −
Interferon (α) [1]; Dose Concentration 0.50 μg/mL
  Interferon (α) Induction in Human Cells: −
Interferon (α) [1]; Dose Concentration 1.0 μg/mL
  Interferon (α) Induction in Human Cells: +
Interferon (α) [1]; Dose Concentration 5.0 μg/mL
  Interferon (α) Induction in Human Cells: +
Interferon (α) [1]; Dose Concentration 10.0 μg/mL
  Interferon (α) Induction in Human Cells: +
Interferon (α) [1]; Dose Concentration 25.0 μg/mL
  Interferon (α) Induction in Human Cells: +
Interferon (α) [1]; Dose Concentration 50.0 μg/mL
  Interferon (α) Induction in Human Cells: +

## Nc1nc2ccccc2c2scnc12 [Example 6, Thiazolo[4,5-c]quinolin-4-amine]
other
  melting point: 172.4 °C (dec.)

## CCc1nc2c[n+]([O-])c3ccccc3c2s1 [Example 7, 2-Ethylthiazolo[4,5-c]quinoline-5N-oxide]
other
  melting point: 128 °C

## CCCc1nc2c[n+]([O-])c3ccccc3c2s1 [Example 11, 2-Propylthiazolo[4,5-c]quinoline-5N-oxide]
other
  melting point: 123 °C

## CCCCCc1nc2c[n+]([O-])c3ccccc3c2s1 [Example 15, 2-Pentylthiazolo[4,5-c]quinoline-5N-oxide]
other
  melting point: 142 to 144 °C

## CCCCc1nc2c[n+]([O-])c3ccccc3c2s1 [Example 17, 2-Butylthiazolo[4,5-c]quinoline-5N-oxide]
other
  melting point: 133 to 135 °C

## CCCCc1nc2c(N)nc3ccccc3c2s1 [Example 18, 2-Butylthiazolo[4,5-c]quinolin-4-amine]
Interferon (α) [1]; Dose Concentration 0.01 μg/mL
  Interferon (α) Induction in Human Cells: −
Interferon (α) [1]; Dose Concentration 0.05 μg/mL
  Interferon (α) Induction in Human Cells: −
Interferon (α) [1]; Dose Concentration 0.10 μg/mL
  Interferon (α) Induction in Human Cells: +
Interferon (α) [1]; Dose Concentration 0.50 μg/mL
  Interferon (α) Induction in Human Cells: +
Interferon (α) [1]; Dose Concentration 1.0 μg/mL
  Interferon (α) Induction in Human Cells: +
Interferon (α) [1]; Dose Concentration 5.0 μg/mL
  Interferon (α) Induction in Human Cells: +
Interferon (α) [2]; Dose Concentration 0.12 μM
  Interferon (α) Induction: −
Interferon (α) [2]; Dose Concentration 0.37 μM
  Interferon (α) Induction: −
Interferon (α) [2]; Dose Concentration 1.11 μM
  Interferon (α) Induction: +
Interferon (α) [2]; Dose Concentration 3.33 μM
  Interferon (α) Induction: +
Interferon (α) [2]; Dose Concentration 10 μM
  Interferon (α) Induction: +
Interferon (α) [2]; Dose Concentration 30 μM
  Interferon (α) Induction: +
[3]; Dose Concentration 0.12 μM
  Tumor Necrosis Factor Induction: +
[3]; Dose Concentration 0.37 μM
  Tumor Necrosis Factor Induction: +
[3]; Dose Concentration 1.11 μM
  Tumor Necrosis Factor Induction: +
[3]; Dose Concentration 3.33 μM
  Tumor Necrosis Factor Induction: +
[3]; Dose Concentration 10 μM
  Tumor Necrosis Factor Induction: +
[3]; Dose Concentration 30 μM
  Tumor Necrosis Factor Induction: +

## [O-][n+]1cc2nc(/C=C/c3ccccc3)sc2c2ccccc21 [Example 21, 2-(2-Phenyl-1-ethenyl)thiazolo[4,5-c]quinoline-5N-oxide]
other
  melting point: 268 to 270 °C

## [O-][n+]1cc2nc(CCc3ccccc3)sc2c2ccccc21 [Example 23, 2-(2-Phenyl-1-ethyl)thiazolo[4,5-c]quinoline-5N-oxide]
other
  melting point: 165 to 169 °C

## CC(C)(O)Cc1nc2c[n+]([O-])c3ccccc3c2s1 [Example 25, 2-Methyl-1-(thiazolo[4,5-c]quinolin-2-yl)-2-propanol-5N-oxide]
other
  melting point: 187 to 189 °C

## CCOCc1nc2c[n+]([O-])c3ccccc3c2s1 [Example 27, 2-(Ethoxymethyl)thiazolo[4,5-c]quinoline-5N-oxide]
other
  melting point: 138 to 140 °C

## [O-][n+]1cc2nc(Cc3ccccc3)sc2c2ccccc21 [Example 33, 2-Benzylthiazolo[4,5-c]quinoline-5N-oxide]
other
  melting point: 185 to 186 °C

## Nc1nc2ccccc2c2sc(Cc3ccccc3)nc12 [Example 34, 2-Benzylthiazolo[4,5-c]quinolin-4-amine Hydrochloride]
Interferon (α) [1]; Dose Concentration 0.01 μg/mL
  Interferon (α) Induction in Human Cells: −
Interferon (α) [1]; Dose Concentration 0.05 μg/mL
  Interferon (α) Induction in Human Cells: −
Interferon (α) [1]; Dose Concentration 0.10 μg/mL
  Interferon (α) Induction in Human Cells: −
Interferon (α) [1]; Dose Concentration 0.50 μg/mL
  Interferon (α) Induction in Human Cells: −
Interferon (α) [1]; Dose Concentration 1.0 μg/mL
  Interferon (α) Induction in Human Cells: −
Interferon (α) [1]; Dose Concentration 5.0 μg/mL
  Interferon (α) Induction in Human Cells: −

## CCCc1nc2c[n+]([O-])c3ccc(C)cc3c2s1 [Example 35, 8-Methyl-2-propylthiazolo[4,5-c]quinoline-5N-oxide]
other
  melting point: 143 to 145 °C

## CCCCc1nc2c[n+]([O-])c3ccccc3c2o1 [Example 40, 2-Butyloxazolo[4,5-c]quinoline-5N-oxide]
other
  melting point: 120 to 121 °C

## CCCCc1nc2c(N)nc3ccccc3c2o1 [Example 41, 2-Butyloxazolo[4,5-c]quinolin-4-amine]
Interferon (α) [1]; Dose Concentration 0.01 μg/mL
  Interferon (α) Induction in Human Cells: +
Interferon (α) [1]; Dose Concentration 0.05 μg/mL
  Interferon (α) Induction in Human Cells: +
Interferon (α) [1]; Dose Concentration 0.10 μg/mL
  Interferon (α) Induction in Human Cells: +
Interferon (α) [1]; Dose Concentration 0.50 μg/mL
  Interferon (α) Induction in Human Cells: +
Interferon (α) [1]; Dose Concentration 1.0 μg/mL
  Interferon (α) Induction in Human Cells: +
Interferon (α) [1]; Dose Concentration 5.0 μg/mL
  Interferon (α) Induction in Human Cells: +

## CS(=O)(=O)c1nc2c[n+]([O-])c3ccccc3c2s1 [Example 51, 2-(Methylsulfonyl)thiazolo[4,5-c]quinolin-5N-oxide]
other
  melting point: 245 to 247 °C

## [O-][n+]1cc2nc(N3CCOCC3)sc2c2ccccc21 [Example 52, 2-(4-Morpholino)thiazolo[4,5-c]quinoline-5N-oxide]
other
  melting point: 241 to 242 °C

## CCCCc1nc2c[n+]([O-])c3cccnc3c2s1 [Example 57, 2-Butylthiazolo[4,5-c][1,5]naphthyridine-5N-oxide]
other
  melting point: 65 to 69 °C

## CCCc1nc2c(N)nccc2s1 [Example 62, 2-Propylpyrido[3,4-d][1,3]thiazol-4-amine Trifluoroacetate]
Interferon (α) [2]; Dose Concentration 0.12 μM
  Interferon (α) Induction: −
Interferon (α) [2]; Dose Concentration 0.37 μM
  Interferon (α) Induction: −
Interferon (α) [2]; Dose Concentration 1.11 μM
  Interferon (α) Induction: −
Interferon (α) [2]; Dose Concentration 3.33 μM
  Interferon (α) Induction: −
Interferon (α) [2]; Dose Concentration 10 μM
  Interferon (α) Induction: −
Interferon (α) [2]; Dose Concentration 30 μM
  Interferon (α) Induction: −
[3]; Dose Concentration 0.12 μM
  Tumor Necrosis Factor Induction: −
[3]; Dose Concentration 0.37 μM
  Tumor Necrosis Factor Induction: −
[3]; Dose Concentration 1.11 μM
  Tumor Necrosis Factor Induction: −
[3]; Dose Concentration 3.33 μM
  Tumor Necrosis Factor Induction: −
[3]; Dose Concentration 10 μM
  Tumor Necrosis Factor Induction: −
[3]; Dose Concentration 30 μM
  Tumor Necrosis Factor Induction: −

Source: US7148232B2, “Oxazolo, thiazolo and selenazolo [4,5-c]-quinolin-4-amines and analogs thereof” (3M Innovative Properties Company, priority 1998, dated 2006)
